Data: patent US12570656B2, “Purine compounds for treating disorders” (MARVEL BIOTECHNOLOGY, priority 2020, dated 2026)
“And” between values parts separate entries of the source, which are not always exact repeats. Identical values can stand only once. Like-named read-outs stand apart in the source and are kept apart here.

What was measured:
[1] = Plasma pharmacokinetics in male CD-1 mice (1 mg/kg i.v. or 3 mg/kg p.o.); conditions: CD-1, mouse, in vivo
Method: (§1) Male CD-1 mice were given either bolus 1 mg/kg i.v. or 3 mg/kg p.o. of the indicated compounds and plasma or brain concentrations were measured.
(§2) Where: • C0 concentration extrapolated to time zero following an i.v. dose • tmax time at which maximum concentration is observed • Cmax maximum observed concentration • Apparent t1/2 apparent terminal half-life • AUC0-tlast area under the concentration vs time curve from time 0 to the time of the last measurable concentration • AUC0-inf area under the concentration vs time curve from time 0 to infinity • CL systemic clearance • MRT0-inf mean residence time from time zero to infinity • Vss steady-state volume of distribution • F oral bioavailability=(Dose^iv*AUC^po)/(Dose^po*AUC^iv)*100

[2] = target: ADORA2A (Homo sapiens, UniProt P29274); test: GPCR screening, calcium flux (calcium mobilization), antagonist format; format: cell-based
ADORA2A, sequence (P29274 whole entry): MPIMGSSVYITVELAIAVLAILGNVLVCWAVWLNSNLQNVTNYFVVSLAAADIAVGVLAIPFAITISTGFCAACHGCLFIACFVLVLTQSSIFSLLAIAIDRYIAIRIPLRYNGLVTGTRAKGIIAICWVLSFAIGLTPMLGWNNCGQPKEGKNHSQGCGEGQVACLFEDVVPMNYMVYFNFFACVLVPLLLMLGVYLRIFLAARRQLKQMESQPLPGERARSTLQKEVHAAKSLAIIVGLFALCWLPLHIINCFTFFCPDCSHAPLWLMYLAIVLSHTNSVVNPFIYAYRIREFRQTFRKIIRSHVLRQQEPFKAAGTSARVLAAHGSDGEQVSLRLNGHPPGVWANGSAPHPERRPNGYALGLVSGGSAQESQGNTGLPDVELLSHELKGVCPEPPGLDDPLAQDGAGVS
Method: To ascertain whether the compounds are suitable A2aR antagonists, the compounds of formulae I, II, III, and IV were subjected to GPCR screening using A2aR as the target. The screening was done using the GPCR Screening and Profiling Services by Eurofins DiscoverX Corporation.
The compounds of formulae I, II, III, and IV were screened for GPCR activity using A2aR as the target.
Cell lines were expanded from freezer stocks according to standard procedures. Cells were seeded in a total volume of 20 μL into black-walled, clear-bottom, Poly-D-lysine coated 384-well microplates and incubated at 37° C. for the appropriate time prior to testing.
Assays were performed in 1× Dye Loading Buffer consisting of 1× Dye, 1× Additive A and 2.5 mM Probenecid in HBSS/20 mM Hepes. Probenicid was prepared fresh. Cells were loaded with dye prior to testing. Media was aspirated from cells and replaced with 20 μL Dye Loading Buffer. Cells were incubated for 30-60 minutes at 37° C.
For antagonist determination, cells were pre-incubated with sample followed by agonist challenge at the EC80 concentration. Intermediate dilution of sample stocks was performed to generate 3× sample in assay buffer. After dye loading, cells were removed from the incubator and 10 μL 3× sample was added. Cells were incubated for 30 minutes at room temperature in the dark to equilibrate plate temperature. Vehicle concentration was 1%. Compound antagonist activity was measured on a FLIPR Tetra (MDS). Calcium mobilization was monitored for 2 minutes and 10 μL EC80 agonist in HBSS/20 mM Hepes was added to the cells 5 seconds into the assay.
For antagonist and negative allosteric modulation mode assays, percentage inhibition is calculated using the following formula: % Inhibition=100%×(1−(mean RFU of test sample−mean RFU of vehicle control)/(mean RFU of EC80 control−mean RFU of vehicle control)).
When the calcium was released, the fluorescence of the dye was increased and the increase was measured in real-time.
FIGS. 1 to 6 show percent reacted (Y) versus concentration in μM (X). Compounds were tested in antagonist mode with the requested GPCR Biosensor Assay. For the antagonist assay, data was normalized to the maximal and minimal response observed in the presence of EC80 ligand and vehicle.

[3] = Brain pharmacokinetics and brain/plasma ratio in male CD-1 mice (1 mg/kg i.v.); format: in vivo; conditions: for Brain concentration / concentration at 5 min / concentration at 0.25 h / concentration at 0.5 h / concentration at 1 h / concentration at 2 h / concentration at 4 h / concentration at 6 h / concentration at 8 h: 1 mg/kg bolus i.v.; for concentration at 5 min / concentration at 0.25 h / concentration at 0.5 h / concentration at 1 h / concentration at 2 h / concentration at 4 h / concentration at 6 h / concentration at 8 h: intravenous, 1 mg/kg
Method: as §1, §2

[4] = male, CD-1, mouse, iv, brain, i.v. 1 mg/kg

Q: Which results are given for `CCn1c(=S)c2c(nc(/C=C/c3ccc(OC)c(OC)c3)n2C)n(CC)c1=O` [Formula III, 8-[(E)-2-(3,4-dimethoxyphenyl)vinyl]-1,3-diethyl-7-methyl-6-thioxo-purin-2-one]?
A: bioavailability [1]: 21.5%; AUC(0-inf) ([1]; iv, 1 mg/kg): 1580 ng·h/mL; AUC(0-t) ([1]; iv, 1 mg/kg): 1280 ng·h/mL; Cmax ([1]; iv, 1 mg/kg): 360 ng/mL; MRT inf ([1]; iv, 1 mg/kg): 4.73 h; Tmax ([1]; iv, 1 mg/kg): 0.25 h; Vd ([1]; iv, 1 mg/kg): 3 L/kg; clearance ([1]; iv, 1 mg/kg): 10.6 mL/min/kg; half-life ([1]; iv, 1 mg/kg): 3.39 h; AUC(0-inf) ([1]; po, 3 mg/kg): 1020 ng·h/mL; AUC(0-t) ([1]; po, 3 mg/kg): 988 ng·h/mL; Cmax ([1]; po, 3 mg/kg): 124 ng/mL; MRT inf ([1]; po, 3 mg/kg): 7.55 h; Tmax ([1]; po, 3 mg/kg): 1 h; half-life ([1]; po, 3 mg/kg): 4.44 h; Curve Bottom ([2]; Antagonist format): 5.0984; Curve Top ([2]; Antagonist format): 98; Hill ([2]; Antagonist format): 1.3853; Emax ([2]; read-out: Max Response): 97.1%; Brain concentration ([3]; 5 min, individual animals 1-3): 383 ng/g and 368 ng/g; Brain concentration ([3]; 0.25 h, individual animals 1-3): 454 ng/g and 394 ng/g; Brain concentration ([3]; 0.5 h, individual animals 1-3): 457 ng/g and 304 ng/g; Brain concentration ([3]; 1 h, individual animals 1-3): 348 ng/g and 354 ng/g; Brain concentration ([3]; 2 h, individual animals 1-3): 239 ng/g and 224 ng/g; Brain concentration ([3]; 4 h, individual animals 1-3): 165 ng/g and 113 ng/g; Brain concentration ([3]; 6 h, individual animals 1-3): 94.1 ng/g and 81.5 ng/g; Brain concentration ([3]; 8 h, individual animals 1-3): 63.9 ng/g and 38.8 ng/g; AUC0-tlast ([3]; brain, i.v. 1 mg/kg): 1315 ng·h/g; AUC(0-inf) ([3]; brain, i.v. 1 mg/kg): 1517 ng·h/g; concentration at 5 min ([3]; male, CD-1, mouse, brain, 5 min, individual animals 1-3, read-out: Brain concentration): 490 ng/g; concentration at 5 min ([3]; male, CD-1, mouse, brain, 5 min, read-out: Brain concentration, Mean): 414 ng/g; concentration at 0.25 h ([3]; male, CD-1, mouse, brain, 0.25 h, individual animals 1-3, read-out: Brain concentration): 379 ng/g; concentration at 0.25 h ([3]; male, CD-1, mouse, brain, 0.25 h, read-out: Brain concentration, Mean): 409 ng/g; concentration at 0.5 h ([3]; male, CD-1, mouse, brain, 0.5 h, individual animals 1-3, read-out: Brain concentration): 379 ng/g; concentration at 0.5 h ([3]; male, CD-1, mouse, brain, 0.5 h, read-out: Brain concentration, Mean): 380 ng/g; concentration at 1 h ([3]; male, CD-1, mouse, brain, 1 h, individual animals 1-3, read-out: Brain concentration): 262 ng/g; concentration at 1 h ([3]; male, CD-1, mouse, brain, 1 h, read-out: Brain concentration, Mean): 321 ng/g; concentration at 2 h ([3]; male, CD-1, mouse, brain, 2 h, individual animals 1-3, read-out: Brain concentration): 212 ng/g; concentration at 2 h ([3]; male, CD-1, mouse, brain, 2 h, read-out: Brain concentration, Mean): 225 ng/g; concentration at 4 h ([3]; male, CD-1, mouse, brain, 4 h, individual animals 1-3, read-out: Brain concentration): 96.9 ng/g; concentration at 4 h ([3]; male, CD-1, mouse, brain, 4 h, read-out: Brain concentration, Mean): 125 ng/g; concentration at 6 h ([3]; male, CD-1, mouse, brain, 6 h, individual animals 1-3, read-out: Brain concentration): 90.1 ng/g; concentration at 6 h ([3]; male, CD-1, mouse, brain, 6 h, read-out: Brain concentration, Mean): 88.6 ng/g; concentration at 8 h ([3]; male, CD-1, mouse, brain, 8 h, individual animals 1-3, read-out: Brain concentration): 45.5 ng/g; concentration at 8 h ([3]; male, CD-1, mouse, brain, 8 h, read-out: Brain concentration, Mean): 49.4 ng/g; Cmax [3, 4]: 414 ng/g; Tmax [3, 4]: 5 min; half-life ([3]; male, CD-1, mouse, iv, brain, i.v. 1 mg/kg, read-out: Apparent t1/2 (converted)): 2.83 h; MRT inf ([3]; male, CD-1, mouse, iv, brain, i.v. 1 mg/kg, read-out: MRT0-inf): 3.94 h
